# Assay results published in article PMC11345841, “Exploring 2-Sulfonylpyrimidine Warheads as Acrylamide Surrogates for Targeted Covalent Inhibition: A BTK Story” (Journal of Medicinal Chemistry, 2024).
# Read-outs that look alike come from different tables or passages of the source.
# What was measured:
# [1] = molecular target: T1, ABL1(M351T)-phosphorylated (Homo sapiens, UniProt P00519, M351T); assay: KINOMEscan ScanTK; type: binding
# T1 construct: purchased Eurofins DiscoverX KINOMEscan (scanTK)
# FGR = molecular target: T2, FGR (Homo sapiens, UniProt P09769); assay: KINOMEscan ScanTK; type: binding
# T2 construct: purchased Eurofins DiscoverX KINOMEscan (scanTK)
# DDR1 = molecular target: T3, DDR1 (Homo sapiens, UniProt Q08345); assay: KINOMEscan ScanTK; type: binding
# T3 construct: purchased Eurofins DiscoverX KINOMEscan (scanTK)
# KIT-autoinhibited = molecular target: T4, KIT-autoinhibited (Homo sapiens, UniProt P10721); assay: KINOMEscan ScanTK; type: binding
# T4 construct: purchased Eurofins DiscoverX KINOMEscan (scanTK)
# ITK = molecular target: T5, ITK (Homo sapiens, UniProt Q08881); assay: KINOMEscan ScanTK; type: binding
# T5 construct: purchased Eurofins DiscoverX KINOMEscan (scanTK)
# T5 sequence (Q08881 1-620): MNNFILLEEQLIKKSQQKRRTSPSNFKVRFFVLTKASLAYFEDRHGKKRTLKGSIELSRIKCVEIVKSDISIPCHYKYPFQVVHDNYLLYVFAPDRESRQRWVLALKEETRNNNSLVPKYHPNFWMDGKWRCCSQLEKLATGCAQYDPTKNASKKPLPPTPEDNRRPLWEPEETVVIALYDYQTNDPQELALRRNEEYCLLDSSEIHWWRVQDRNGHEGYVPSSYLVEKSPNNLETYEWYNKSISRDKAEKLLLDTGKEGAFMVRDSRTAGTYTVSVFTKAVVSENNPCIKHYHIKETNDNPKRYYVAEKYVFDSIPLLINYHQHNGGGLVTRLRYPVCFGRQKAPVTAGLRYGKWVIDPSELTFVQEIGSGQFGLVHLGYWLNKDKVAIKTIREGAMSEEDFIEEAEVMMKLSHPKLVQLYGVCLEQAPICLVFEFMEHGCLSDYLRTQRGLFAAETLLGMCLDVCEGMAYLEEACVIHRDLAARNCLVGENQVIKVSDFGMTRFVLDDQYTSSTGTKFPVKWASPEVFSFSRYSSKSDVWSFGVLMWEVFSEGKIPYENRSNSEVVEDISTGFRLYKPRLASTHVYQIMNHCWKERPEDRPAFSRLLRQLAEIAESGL
# [2] = molecular target: T6, ABL1(T315I)-nonphosphorylated (Homo sapiens, UniProt P00519, T315I); assay: KINOMEscan ScanTK; type: binding
# T6 construct: purchased Eurofins DiscoverX KINOMEscan (scanTK)
# [3] = molecular target: T7, ABL1(F317L)-phosphorylated (Homo sapiens, UniProt P00519, F317L); assay: KINOMEscan ScanTK; type: binding
# T7 construct: purchased Eurofins DiscoverX KINOMEscan (scanTK)
# DDR2 = molecular target: T8, DDR2 (Homo sapiens, UniProt Q16832); assay: KINOMEscan ScanTK; type: binding; settings: DDR2
# T8 construct: purchased Eurofins DiscoverX KINOMEscan (scanTK)
# T8 sequence (Q16832 22-855): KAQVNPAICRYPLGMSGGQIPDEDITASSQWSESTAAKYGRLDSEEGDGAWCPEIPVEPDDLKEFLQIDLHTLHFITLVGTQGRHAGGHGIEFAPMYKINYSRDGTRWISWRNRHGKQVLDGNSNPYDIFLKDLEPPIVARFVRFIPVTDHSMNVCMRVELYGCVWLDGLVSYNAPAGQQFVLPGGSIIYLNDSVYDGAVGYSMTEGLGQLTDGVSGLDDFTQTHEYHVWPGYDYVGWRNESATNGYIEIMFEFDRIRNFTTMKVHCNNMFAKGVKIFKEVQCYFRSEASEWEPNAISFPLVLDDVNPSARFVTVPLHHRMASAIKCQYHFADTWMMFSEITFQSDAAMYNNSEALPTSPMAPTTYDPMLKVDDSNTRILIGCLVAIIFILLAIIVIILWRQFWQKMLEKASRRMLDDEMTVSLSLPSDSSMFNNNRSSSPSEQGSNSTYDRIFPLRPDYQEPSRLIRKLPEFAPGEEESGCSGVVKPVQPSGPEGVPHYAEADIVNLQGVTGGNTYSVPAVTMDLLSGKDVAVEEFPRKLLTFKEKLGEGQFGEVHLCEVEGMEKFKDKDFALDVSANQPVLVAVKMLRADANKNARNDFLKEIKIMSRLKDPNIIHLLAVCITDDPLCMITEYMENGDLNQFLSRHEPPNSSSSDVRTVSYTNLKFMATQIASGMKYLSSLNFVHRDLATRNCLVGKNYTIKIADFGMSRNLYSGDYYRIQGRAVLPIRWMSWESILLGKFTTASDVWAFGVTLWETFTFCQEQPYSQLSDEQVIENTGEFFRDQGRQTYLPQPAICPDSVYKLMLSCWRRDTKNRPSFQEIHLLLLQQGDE
# BTK Y223 phosphorylation = assay: Immunoblotting, anti-IgM-induced signaling in OCI-LY7 cells; settings: 500 nM, 1 h
# Protocol: We also investigated the effects of the compounds (at 500 nM) on sIgM signaling by analyzing the phosphorylation status of key signaling molecules activated downstream of the BCR.
# Secondary antibodies were horseradish peroxidase-conjugated antibodies (GE Healthcare). Images were captured using the Amersham ImageQuant 800 System and quantified using ImageJ (http://imagej.nih.gov/ij/). Expression of phosphorylated proteins was normalized to the equivalent total protein with values for DMSO/anti-IgM set to 100%.
# T2 sequence (P09769 whole entry): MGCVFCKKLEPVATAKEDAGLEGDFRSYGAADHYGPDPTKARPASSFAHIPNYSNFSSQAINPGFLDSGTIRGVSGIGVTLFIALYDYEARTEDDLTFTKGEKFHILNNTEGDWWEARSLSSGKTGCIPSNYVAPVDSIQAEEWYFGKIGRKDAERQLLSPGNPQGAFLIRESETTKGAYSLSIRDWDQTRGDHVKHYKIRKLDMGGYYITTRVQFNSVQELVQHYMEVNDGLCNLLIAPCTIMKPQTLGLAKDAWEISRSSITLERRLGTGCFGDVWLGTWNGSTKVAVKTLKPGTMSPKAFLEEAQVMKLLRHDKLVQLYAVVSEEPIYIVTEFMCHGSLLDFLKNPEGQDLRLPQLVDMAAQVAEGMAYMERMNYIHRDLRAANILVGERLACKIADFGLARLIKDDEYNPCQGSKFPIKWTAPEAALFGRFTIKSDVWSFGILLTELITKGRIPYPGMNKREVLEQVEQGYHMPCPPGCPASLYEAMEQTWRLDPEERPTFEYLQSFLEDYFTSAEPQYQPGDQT
# T3 sequence (Q08345 19-913): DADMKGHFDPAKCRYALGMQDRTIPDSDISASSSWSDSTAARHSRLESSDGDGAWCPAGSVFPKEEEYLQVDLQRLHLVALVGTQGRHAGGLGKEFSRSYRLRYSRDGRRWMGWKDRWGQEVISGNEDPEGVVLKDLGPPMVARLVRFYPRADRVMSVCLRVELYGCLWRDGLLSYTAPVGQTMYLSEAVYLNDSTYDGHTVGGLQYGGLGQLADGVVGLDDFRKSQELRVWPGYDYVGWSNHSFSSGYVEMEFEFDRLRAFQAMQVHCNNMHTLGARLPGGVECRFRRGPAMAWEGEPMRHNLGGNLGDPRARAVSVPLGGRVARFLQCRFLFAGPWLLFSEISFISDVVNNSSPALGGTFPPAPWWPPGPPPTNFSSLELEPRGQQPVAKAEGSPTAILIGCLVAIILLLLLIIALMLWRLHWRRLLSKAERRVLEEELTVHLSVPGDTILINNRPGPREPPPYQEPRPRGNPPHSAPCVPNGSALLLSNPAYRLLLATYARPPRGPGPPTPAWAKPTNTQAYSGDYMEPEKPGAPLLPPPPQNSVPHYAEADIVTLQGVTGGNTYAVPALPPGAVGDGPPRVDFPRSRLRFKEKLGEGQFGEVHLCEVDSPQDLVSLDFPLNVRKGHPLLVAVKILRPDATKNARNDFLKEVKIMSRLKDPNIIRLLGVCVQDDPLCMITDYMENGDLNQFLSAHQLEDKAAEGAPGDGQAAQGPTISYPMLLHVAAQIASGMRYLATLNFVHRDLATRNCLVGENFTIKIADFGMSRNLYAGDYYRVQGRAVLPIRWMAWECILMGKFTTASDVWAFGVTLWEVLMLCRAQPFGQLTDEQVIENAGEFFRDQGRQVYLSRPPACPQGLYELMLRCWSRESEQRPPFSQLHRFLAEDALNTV
# T4 sequence (P10721 26-976): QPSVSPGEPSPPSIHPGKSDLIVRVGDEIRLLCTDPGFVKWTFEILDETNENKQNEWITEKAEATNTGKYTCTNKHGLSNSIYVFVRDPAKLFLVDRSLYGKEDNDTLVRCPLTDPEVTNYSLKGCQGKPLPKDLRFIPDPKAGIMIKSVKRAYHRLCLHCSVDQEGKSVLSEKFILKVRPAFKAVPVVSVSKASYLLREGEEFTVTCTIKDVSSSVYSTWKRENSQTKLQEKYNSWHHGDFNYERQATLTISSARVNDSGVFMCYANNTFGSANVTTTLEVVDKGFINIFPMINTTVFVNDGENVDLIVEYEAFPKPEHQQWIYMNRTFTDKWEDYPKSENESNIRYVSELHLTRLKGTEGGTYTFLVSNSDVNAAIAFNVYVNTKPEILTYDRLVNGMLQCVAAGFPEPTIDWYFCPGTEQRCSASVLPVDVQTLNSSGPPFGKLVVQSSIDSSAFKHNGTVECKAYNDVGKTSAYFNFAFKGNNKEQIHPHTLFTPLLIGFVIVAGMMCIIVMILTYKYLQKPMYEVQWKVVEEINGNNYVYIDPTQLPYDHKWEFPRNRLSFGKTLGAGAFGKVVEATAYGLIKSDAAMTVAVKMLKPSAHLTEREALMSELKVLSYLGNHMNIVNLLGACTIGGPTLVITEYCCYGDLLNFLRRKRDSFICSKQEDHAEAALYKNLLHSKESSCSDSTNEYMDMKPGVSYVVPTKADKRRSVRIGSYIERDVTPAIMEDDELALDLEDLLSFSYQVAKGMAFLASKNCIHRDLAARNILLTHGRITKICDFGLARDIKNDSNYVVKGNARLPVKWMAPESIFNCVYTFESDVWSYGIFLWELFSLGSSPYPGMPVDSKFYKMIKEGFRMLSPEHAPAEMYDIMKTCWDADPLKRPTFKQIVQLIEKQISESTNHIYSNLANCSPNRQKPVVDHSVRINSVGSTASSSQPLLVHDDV
structure (smiles),measurement,setting,value
"COC(=O)c1cnc(S(C)(=O)=O)nc1N1CCCC(n2nc(-c3ccc(Oc4ccccc4)cc3)c3c(N)ncnc32)C1 (stereo not shown) [Compound 8b, Methyl 4-(3-(4-Amino-3-(4-phenoxyphenyl)-1H-pyrazolo[3,4-d]pyrimidin-1-yl)piperidin-1-yl)-2-(methylsulfonyl)pyrimidine-5-carboxylate]",difference in %Control from compound Ib at 1 µM,[1]; @1000nM,1%
same,remaining binding at 1 µM,"[1]; @1000nM, read-out: %Control",66%
same,remaining binding at 1 µM,[1]; read-out: %Control @1000nM,66%
same,difference in %Control versus compound Ib at 1 µM,FGR; @1000nM,20.7%
same,remaining binding at 1 µM,"FGR; @1000nM, read-out: %Control",26%
same,remaining binding at 1 µM,FGR; read-out: %Control @1000nM,26%
same,difference in %Control from compound Ib at 1 µM,DDR1; @1000nM,-18%
same,remaining binding at 1 µM,"DDR1; @1000nM, read-out: %Control",60%
same,remaining binding at 1 µM,DDR1; read-out: %Control @1000nM,60%
same,remaining binding at 1 µM,"KIT-autoinhibited; @1000nM, read-out: %Control",90%
same,remaining binding at 1 µM,KIT-autoinhibited; read-out: %Control @1000nM,90%
same,difference in %Control versus compound Ib at 1 µM,"ITK; @1000nM, ITK",56%
same,remaining binding at 1 µM,"ITK; @1000nM, ITK, read-out: %Control",71%
same,remaining binding at 1 µM,"ITK; ITK, read-out: %Control @1000nM",71%
same,inhibition at 1 µM,"ITK; ScanTK, 1 μM",29%
same,difference in % of control versus compound Ib at 1 µM,[2]; @1000nM,-17%
same,remaining binding at 1 µM,"[2]; @1000nM, read-out: %Control",76%
same,remaining binding at 1 µM,[2]; read-out: %Control @1000nM,76%
same,difference in %Control from compound Ib at 1 µM,[3]; @1000nM,16%
same,remaining binding at 1 µM,"[3]; @1000nM, read-out: %Control",53%
same,remaining binding at 1 µM,[3]; read-out: %Control @1000nM,53%
same,difference in %Control from reference compound Ib at 1 µM,DDR2; @1000nM,-6%
same,remaining binding at 1 µM,"DDR2; @1000nM, read-out: %Control",91%
same,remaining binding at 1 µM,DDR2; read-out: %Control @1000nM,91%
same,anti-IgM-induced BTK Y223 phosphorylation,BTK Y223 phosphorylation,selectively reduced BTK Y^223 phosphorylation
